Laboratory results from PubChem BioAssay (NCI).
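Abbreviation: GI50, concentration required for 50% inhibition of growth. TGI is the concentration that stops growth completely.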

Legend:
Assay in all cases: inhibition of tumour cell growth, NCI panel, 384-well format
IGROV1 ovarian = test system: IGROV1 ovarian
RPMI-8226 leukemia = test system: RPMI-8226 leukemia
MCF7 breast = test system: MCF7 breast
MALME-3M melanoma = test system: MALME-3M melanoma
KM12 colon = test system: KM12 colon
DU-145 prostate = test system: DU-145 prostate
A498 renal = test system: A498 renal
SK-MEL-5 melanoma = test system: SK-MEL-5 melanoma
A549 NSCLC = test system: A549 NSCLC
HCT-116 colon = test system: HCT-116 colon
T-47D breast = test system: T-47D breast
NCI-H322M lung = test system: NCI-H322M lung
U251 glioblastoma = test system: U251 glioblastoma
CCRF-CEM leukemia = test system: CCRF-CEM leukemia
OVCAR-4 ovarian = test system: OVCAR-4 ovarian
SR leukemia = test system: SR leukemia
ACHN renal = test system: ACHN renal
MOLT-4 leukemia = test system: MOLT-4 leukemia
LOX IMVI melanoma = test system: LOX IMVI melanoma
K-562 leukemia = test system: K-562 leukemia
SNB-19 CNS = test system: SNB-19 CNS
NCI-H23 lung = test system: NCI-H23 lung
NCI-H460 NSCLC = test system: NCI-H460 NSCLC
OVCAR-8 ovarian = test system: OVCAR-8 ovarian
MDA-MB-435 melanoma = test system: MDA-MB-435 melanoma
SW-620 colon = test system: SW-620 colon
M14 melanoma = test system: M14 melanoma
SF-539 CNS = test system: SF-539 CNS
SNB-75 CNS = test system: SNB-75 CNS
HL-60(TB) leukemia = test system: HL-60(TB) leukemia
UACC-257 melanoma = test system: UACC-257 melanoma
MDA-MB-468 breast = test system: MDA-MB-468 breast
NCI-H522 lung = test system: NCI-H522 lung
SK-MEL-28 melanoma = test system: SK-MEL-28 melanoma
TK-10 renal = test system: TK-10 renal
786-0 renal = test system: 786-0 renal
EKVX NSCLC = test system: EKVX NSCLC
SF-295 CNS = test system: SF-295 CNS
CAKI-1 renal = test system: CAKI-1 renal
HCC-2998 colon = test system: HCC-2998 colon
UO-31 renal = test system: UO-31 renal
SK-MEL-2 melanoma = test system: SK-MEL-2 melanoma
BT-549 breast = test system: BT-549 breast
HCT-15 colon = test system: HCT-15 colon
HT29 colon = test system: HT29 colon
PC-3 prostate = test system: PC-3 prostate
HOP-92 NSCLC = test system: HOP-92 NSCLC

In the case of FC(F)(F)c1ccc(CNc2ccc(Cc3c[nH]c4ncc(Cl)cc34)cn2)cn1, the GI50 (IGROV1 ovarian) is reported as 13.5 µM, the TGI (IGROV1 ovarian) is reported as 27.8 µM and the GI50 (RPMI-8226 leukemia) is reported as 6.96 µM. For the same molecule, the TGI (RPMI-8226 leukemia) was 19.1 µM, the GI50 (MCF7 breast) was 12.5 µM and the TGI (MCF7 breast) was 25.3 µM. For the same molecule, the GI50 (MALME-3M melanoma) was 8.2 µM, the TGI (MALME-3M melanoma) was 17.4 µM and the GI50 (KM12 colon) was 4.46 µM. For the same molecule, the TGI (KM12 colon) was 14.2 µM, the GI50 (DU-145 prostate) was 15.4 µM and the TGI (DU-145 prostate) was 29.1 µM. The GI50 (A498 renal) was 7.91 µM, the TGI (A498 renal) was 19.1 µM and the GI50 (SK-MEL-5 melanoma) was 6.22 µM. The TGI (SK-MEL-5 melanoma) was 18.3 µM, the GI50 (A549 NSCLC) was 13.1 µM and the TGI (A549 NSCLC) was 26.2 µM. The GI50 (HCT-116 colon) was 12.8 µM, the TGI (HCT-116 colon) was 25.9 µM and the GI50 (T-47D breast) was 4.85 µM. It also gave a TGI (T-47D breast) of 16.1 µM, a GI50 (NCI-H322M lung) of 8.81 µM and a TGI (NCI-H322M lung) of 21.6 µM. It also gave a GI50 (U251 glioblastoma) of 14.2 µM, a TGI (U251 glioblastoma) of 27.5 µM and a GI50 (CCRF-CEM leukemia) of 6.19 µM. For the same molecule, the TGI (CCRF-CEM leukemia) was 17.9 µM, the GI50 (OVCAR-4 ovarian) was 9.12 µM and the TGI (OVCAR-4 ovarian) was 22.2 µM. The GI50 (SR leukemia) was 2.13 µM, the TGI (SR leukemia) was 5.5 µM and the GI50 (ACHN renal) was 14.1 µM. It also gave a TGI (ACHN renal) of 30.7 µM, a GI50 (MOLT-4 leukemia) of 2.83 µM and a TGI (MOLT-4 leukemia) of 9.58 µM. It also gave a GI50 (LOX IMVI melanoma) of 14.4 µM, a TGI (LOX IMVI melanoma) of 27.7 µM and a GI50 (K-562 leukemia) of 5.09 µM. The TGI (K-562 leukemia) was 17.2 µM, the GI50 (SNB-19 CNS) was 15.9 µM and the TGI (SNB-19 CNS) was 30.5 µM. It also gave a GI50 (NCI-H23 lung) of 11 µM, a TGI (NCI-H23 lung) of 23 µM and a GI50 (NCI-H460 NSCLC) of 12.9 µM. For the same molecule, the TGI (NCI-H460 NSCLC) was 26.1 µM, the GI50 (OVCAR-8 ovarian) was 10.3 µM and the TGI (OVCAR-8 ovarian) was 23.1 µM. It also gave a GI50 (MDA-MB-435 melanoma) of 16.2 µM, a TGI (MDA-MB-435 melanoma) of 30.1 µM and a GI50 (SW-620 colon) of 15.1 µM. For the same molecule, the TGI (SW-620 colon) was 28.8 µM, the GI50 (M14 melanoma) was 13.3 µM and the TGI (M14 melanoma) was 26.2 µM. For the same molecule, the GI50 (SF-539 CNS) was 11.2 µM, the TGI (SF-539 CNS) was 23.7 µM and the GI50 (SNB-75 CNS) was 2.73 µM. For the same molecule, the TGI (SNB-75 CNS) was 8.45 µM, the GI50 (HL-60(TB) leukemia) was 6.17 µM and the TGI (HL-60(TB) leukemia) was 16.3 µM. For the same molecule, the GI50 (UACC-257 melanoma) was 12.4 µM, the TGI (UACC-257 melanoma) was 25.9 µM and the GI50 (MDA-MB-468 breast) was 2.82 µM. It also gave a TGI (MDA-MB-468 breast) of 9.15 µM, a GI50 (NCI-H522 lung) of 8.58 µM and a TGI (NCI-H522 lung) of 21 µM. The GI50 (SK-MEL-28 melanoma) was 9 µM, the TGI (SK-MEL-28 melanoma) was 21.7 µM and the GI50 (TK-10 renal) was 14.4 µM. For the same molecule, the TGI (TK-10 renal) was 28.6 µM, the GI50 ([…]-0 renal) was 3.7 µM and the TGI (786-0 renal) was 10.7 µM. It also gave a GI50 (EKVX NSCLC) of 10.7 µM, a TGI (EKVX NSCLC) of 23.7 µM and a GI50 (SF-295 CNS) of 11.3 µM. It also gave a TGI (SF-295 CNS) of 23.7 µM, a GI50 (CAKI-1 renal) of 14.7 µM and a TGI (CAKI-1 renal) of 28.8 µM. The GI50 (HCC-2998 colon) was 13.8 µM, the TGI (HCC-2998 colon) was 26.9 µM and the GI50 (UO-31 renal) was 11.6 µM. The TGI (UO-31 renal) was 23.9 µM, the GI50 (SK-MEL-2 melanoma) was 7.92 µM and the TGI (SK-MEL-2 melanoma) was 20.4 µM. It also gave a GI50 (BT-549 breast) of 12.2 µM, a TGI (BT-549 breast) of 25.5 µM and a GI50 (HCT-15 colon) of 11.4 µM. For the same molecule, the TGI (HCT-15 colon) was 23.9 µM, the GI50 (HT29 colon) was 9.79 µM and the TGI (HT29 colon) was 23 µM. The GI50 (PC-3 prostate) was 12.7 µM, the TGI (PC-3 prostate) was 25.7 µM and the GI50 (HOP-92 NSCLC) was 8.41 µM. It also gave a TGI (HOP-92 NSCLC) of 21.3 µM.
